In paper PMC12337087 (Phytotherapy Research, 2025):

Biological target: Phosphoglycerate mutase 1 (PGAM1) (Homo sapiens, UniProt P18669)
Test: SPR
Type: binding

Chain of Phosphoglycerate mutase 1 (PGAM1) (P18669 2-254): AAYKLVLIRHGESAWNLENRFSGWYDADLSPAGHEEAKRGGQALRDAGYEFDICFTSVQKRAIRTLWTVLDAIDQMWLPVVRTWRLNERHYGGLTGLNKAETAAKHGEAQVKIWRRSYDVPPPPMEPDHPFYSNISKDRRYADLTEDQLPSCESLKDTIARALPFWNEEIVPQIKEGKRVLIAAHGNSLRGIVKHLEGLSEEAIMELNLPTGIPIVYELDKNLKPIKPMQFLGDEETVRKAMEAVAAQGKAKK

Cc1cccc2c3c(ccc12)C1=C(C(=O)C3=O)[C@@H](C)CO1 [DHT, Dihydrotanshinone I]
Kd: 697 nM
